{"source": "paper PMC11666850", "about": "“Development and evaluation of deuterated [^18F]JHU94620 isotopologues for the non-invasive assessment of the cannabinoid type 2 receptor in brain” (EJNMMI Radiopharmacy and Chemistry, 2024)", "key": {"[1]": {"target": "T1, hCB2R(D80N) (Homo sapiens, UniProt P34972, D80N)", "T1 sequence (P34972 whole entry D80N)": "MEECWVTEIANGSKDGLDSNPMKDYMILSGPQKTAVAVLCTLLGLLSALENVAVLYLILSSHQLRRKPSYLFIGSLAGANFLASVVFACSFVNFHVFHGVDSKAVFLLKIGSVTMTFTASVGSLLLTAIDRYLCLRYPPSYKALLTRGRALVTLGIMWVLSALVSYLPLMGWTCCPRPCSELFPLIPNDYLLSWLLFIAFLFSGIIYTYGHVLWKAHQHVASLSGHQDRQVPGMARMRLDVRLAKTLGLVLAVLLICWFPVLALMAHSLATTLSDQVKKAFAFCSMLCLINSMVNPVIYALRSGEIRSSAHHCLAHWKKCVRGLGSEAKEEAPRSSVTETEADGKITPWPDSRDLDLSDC", "test": "Homologous displacement autoradiography, brain cryosections of rats with hCB2R(D80N) overexpression", "type": "binding"}, "[2]": {"target": "T2, human CB2R (hCB2R) (Homo sapiens, UniProt P34972)", "T2 construct": "expressed in transfected cells; host or cells: CHO(hCB2R) cells, obtained from Paul L. Prather, University of Arkansas for Medical Sciences", "test": "Homologous competition binding, CHO(hCB2R) cell membranes", "description": "For binding studies crude homogenates of CHO(hCB2R) cells (obtained from Paul L. Prather, Department of Pharmacology and Toxicology, College of Medicine, University of Arkansas for Medical Sciences, USA) were incubated with the reference compound (self-blocking) or the CB2R-specific partial agonist GW405833 (Tocris Bioscience, Bristol, UK) with indicated concentrations at room temperature for 90 min. The total volume of 1 mL of each sample consisted of 600 µL incubation buffer (50 mM Tris HCl pH7.4, 5 mM MgCl2, 1 mM EDTA and 1% Bovine Serum Albumin), 200 µL cell membrane homogenates, 100 µL competitor or binding buffer (total binding) and 100 µl of binding buffer with [^18F]JHU94620-d8 (about 100 kBq per vial, corresponding to 0.8 to 1.6 nM). Incubation was terminated by rapid filtration through a GF-B glass fibre filter, pre-treated with 0.5% PVP with 0.1% Tween 20 solution, using a 48-well cell harvester, washed six times with buffer and filter bound activity was subsequently measured in a γ-counter (1480 WIZARD, Perkin Elmer, Turku, Finland).\nThe KD values were calculated with GraphPad Prism according to the modified Cheng-Prusoff method for homologous competitive binding studies, where the KD = Ki = IC50—[radioligand] and the Bmax = specific binding / [radioligand] / ((KD + [radioligand])) (Motulsky and Neubig [2000]), assuming a total protein content of 8.2% (1.3 10^–4 µg protein per voxel) in the spleen (Zaia et al. [2000]) or by determining the protein concentration of the cell membrane lysates using a BCA assay (Thermo Scientific, Braunschweig, Germany). The fractional occupancy defined as occupied binding sites per total binding sites is used to describe the binding fraction specifically bound to CB2R compared to unspecific binding, where [L] is the concentration of the ligand at the start of incubation."}, "[3]": {"target": "T1, hCB2R(D80N)", "conditions": "female, Wistar, rat, in vivo", "description": "The dynamic biodistribution of the radiotracer in the lower body of rats was assessed by small animal PET (Nanoscan, Mediso, Hungary) over 60 min with a subsequently T1-weighted MR. Anaesthetized (2% isoflurane, carrier gas mixture of 40% air and 60% O2) male Wistar rats (body weight: 205–308 g, age: 8–10 weeks, no gender-specific differences were taken into account) were kept during imaging on a heated animal bed to sustain body temperature and were pretreated with vehicle (DMSO:Kolliphore EL:0.9% saline, 1:2:7), JHU94620-d8 (1.5 mg kg^−1 bodyweight) or with GW405833 (5 mg kg^−1 bodyweight) 5 min prior tracer application ([^18F]JHU94620-d8: 7.7–28.2 MBq, 0.4 to 3.2 nmol kg^−1 bodyweight), whereby all injections were administered intravenously. For the evaluation of the hCB2R-specific binding of the radiotracer in the brain, female Wistar rats (n = 6, 253–269 g, age: 8 month) were used carrying stereotactically injected constructs of AAV2/7-CaMKII0.4-intron-hCB2R(D80N) in the right striatum and AAV2/7-CaMKII0.4-intron-3flag-eGFP in the control/contralateral striatum (Vandeputte et al. [2011]). 21–26 MBq corresponding to 0.2 to 2.0 nmol kg^−1 bodyweight radiotracer were injected, whereas in displacement studies 5 mg kg^−1 bodyweight GW405833 was administered 20 min after the radiotracer (each n = 3). The PET scans were performed six months after the stereotactic injections of the AAV2/7-constructs.\nThe acquisitions were performed in normal mode and a coincidence mode 1–5. For subsequent dynamic reconstructions list mode data were sorted into sinograms (12 × 10 s, 6 × 30 s, 5 × 60 s and 10 × 300 s). The frames were reconstructed by Ordered Subset Expectation Maximization applied to 3D (OSEM3D) sinograms corrected for decay and attenuation (4 iterations, 6 subsets and a voxel size of 0.4 mm^3) with the Nucline software v2.01 (Mediso, Budapest, Hungary). Analyses of reconstructed studies were performed with PMOD software (v4.205, PMOD Technologies LLC, Fällanden, Switzerland) and results are expressed in standardized uptake values (SUVs) or normalized to a reference region (SUVr).\nFrom the wildtype rats used for in vivo metabolism studies a hematocrit content of 0.56 ± 0.04 (n = 11) was determined by a 5 min centrifugation of 50 µl blood in a hematocrit centrifuge at 500 g. The free plasma fraction (fp) of [^18F]JHU94620-d8 was determined gravimetrically by ultrafiltration of 100 µl rat plasma samples incubated for 5, 15, 30 and 60 min at 37 °C for 20 min at 14,000 g utilizing Nanosep® centrifugal filters (10 kDa, Pall Laboratory, USA). The brain PET images were co-registered to the PMOD integrated Px Rat (W. Schiffer) T2 MR template and the brain stem, cerebellum, left cortex and left midbrain region from the corresponding brain atlas were used for the determination of the regional TACs. Due to high spillover signals from the hCB2R(D80N) expressing region not all provided atlas regions could be evaluated. Subsequently, the total tissue distribution (VT) was estimated by 2-tissue compartment modelling. For correction of the TACs, an averaged image-derived input function (pIDIF, plasma-to-whole blood ratio corrected), determined in biodistribution studies and the parent fraction derived from metabolism studies in Wistar rats (Watabe fit) and pIDIF (3-exponential fit) were integrated into the modelling process. The binding potential was estimated by a simplified reference tissue modelling (SRTM) using the cerebellar region as reference. The parametric maps were generated with the PXMOD module."}}}
{"smiles": "[2H]C([2H])([18F])C([2H])([2H])C([2H])([2H])C([2H])([2H])n1c(C)c(C)s/c1=N\\C(=O)C1C(C)(C)C1(C)C", "note": "[[^18F]JHU94620-d8]", "values": [{"measurement": "Kd", "setting": "[1]", "result": 41, "unit": "nM"}, {"measurement": "Kd", "setting": "[2]", "result": 1.47, "unit": "nM"}, {"measurement": "Bmax", "setting": "[2]; CHO(hCB2R) cell membrane fractions", "result": 2.7, "unit": "pmol mg^−1 protein"}, {"measurement": "TAC peak value, Cerebellum", "setting": "[3]", "result": "2.8 ± 0.2", "unit": "SUVmean"}, {"measurement": "TAC peak value, Contralateral", "setting": "[3]", "result": "3.3 ± 0.5", "unit": "SUVmean"}, {"measurement": "Time-to-peak, Cerebellum", "setting": "[3]", "result": 2.5, "unit": "min"}, {"measurement": "Time-to-peak, Contralateral", "setting": "[3]", "result": 3.5, "unit": "min"}, {"measurement": "Time-to-peak, hCB2R(D80N)", "setting": "[3]", "result": 10, "unit": "min"}, {"measurement": "VT of hCB2R(D80N) region, times higher than other investigated brain regions", "setting": "[3]", "result": "up to 23 times"}, {"measurement": "SUVr60min hCB2R(D80N)-to-Cerebellum", "setting": "[3]; 60 min", "result": "47 ± 4"}, {"measurement": "SUVr60min hCB2R(D80N)-to-Contralateral", "setting": "[3]; 60 min", "result": "10 ± 4"}]}
